Data taken from patent publication US20140243403A1, “TREATING COLORECTAL, PANCREATIC, AND LUNG CANCER” (The General Hospital Corporation, priority 2011, published 2014).

Columns and labels:
[1] = system: TOP-FLASH reporter in YAPC cells; assay: TOP-FLASH reporter in YAPC PDAC cells; format: cell-based; conditions: YAPC cells, simultaneous treatment with BIO
Text: (E) TOP-FLASH reporter activity in KRAS mutant PDAC cell lines following inhibition of GSK-3 kinase with increasing concentrations of the small molecule inhibitor BIO. PANC-1 are KRAS-independent cells and YAPC are KRAS-dependent cells. Luminescence counts (photons/sec) are plotted on the y-axis. Data are representative of three independent experiments+/−SEM.
(F) TOP-FLASH reporter dose-response relationships in PANC-1 and YAPC cells following combined treatment with GSK-3 and TAK1 inhibitors (BIO and 5Z-7-Oxozeaenok respectively). Luminescence counts (photons/sec) are plotted on the y-axis. Data are represented as the means of triplicates+/−SEM.
To further test the role of Wnt signaling in this context, experiments were performed using two KRAS mutant pancreatic cancer (PDAC) cell lines, PANC-1 and YAPC, which are APC wild-type. PANC-1 cells are KRAS-independent, whereas YAPC cells are KRAS-dependent, a distinction that has been linked to increased KRAS signaling in YAPC cells (Singh et al., 2009). […] In contrast, PANC-1 cells undergo stronger induction of TOP-FLASH activity with combined GSK-3 and TAK1 inhibition (FIG. 11F, […]). […] Finally, a constitutively-activated mutant of β-catenin (CTNNB1-CA) containing S33Y and S45A missense mutations was introduced into KRAS-dependent SW620 cells. This mutant caused partial losses in both KRAS and TAK1 dependencies (FIGS. 13A-C). […]

[2] = system: HT29 cells expressing mutant NRAS; assay: Sensitivity of HT29 cells expressing mutant NRAS; format: cell-based, human; conditions: HT29 cells with ectopic mutant NRAS
Text: (D) Forced overexpression of epitope-tagged oncogenic G12V mutated RAS protein isoforms in HT29 cells and sensitivity to TAK1 pharmacological inhibition with 5Z-7-oxozeaenol. Expression levels of exogenous and endogenous Ras proteins are shown by immunoblotting with a pan-ras monoclonal antibody. NRAS/KRAS4B are HA-tagged and KRAS4A is V5-tagged.
These cell lines are insensitive to 5Z-7-oxozeaenol.

[3] = system: HT29 cells expressing BMPR1A-CA (Q233D); assay: Sensitivity of HT29 cells expressing BMPR1A-CA; format: cell-based, human
Description: (E) Introduction of a V5-tagged constitutively activated (CA) mutant of the BMP receptor, BMPR1A (Q233D) or control vector in HT29 cells and effects on 5Z-7-oxozeaenol sensitivity in terms of IC50 values.
To determine whether TAK1-independent cells could be driven toward TAK1 dependency by enhanced KRAS/Wnt signaling, a series of reconstitution experiments was performed. HT29, SW620 or SKCO1 cells were infected with recombinant lentiviruses encoding either BMPR1A-CA and CTNNB1-CA or vector control (containing the ccDB gene). For BMPR1A-CA stable expression, cells were selected in 5 μg/mlBlasticidin for 7 days and pooled clones were established. Stable expression was verified using the V5 epitope tag on the BMPR1A transgene product. For CTNNB1-CA, the pWPI recombinant lentiviruses encode GFP driven by IRES. Thus, stable cell clones were obtaining by FACS live cell sorting to obtain the top 10% of GFP expressing cells. The SW620-CTNNB1-CA stable cell clones were passaged 1:5 every 2 days and assayed for KRAS dependency after the fifth passage.
To further define the role of BMP signaling in TAK1 dependency, a constitutively-activated (CA) variant (Q233D) of BMPR1A (Zou et al., 1997) was ectopically expressed in HT29 cells. […] This was accompanied by dose-dependent decreases in Axin 2 and phosphorylated Smad2 levels. […]

[4] = system: non-small cell lung cancer (NSCLC) cells; assay: Sensitivity of KRAS mutant NSCLC cell lines; format: cell-based; conditions: 4 NSCLC cell lines, APC wild-type
Description: (B) 5Z-7-oxozeaenol IC50 values for KRAS mutant PDAC and NSCLC cell lines.
To determine if sensitivity to TAK1 inhibition is specific to colon cancer-derived cell lines, sensitivity to 5Z-7-oxozeaenol was assessed in 5 KRAS mutant pancreatic ductal adenocarcinoma (PDAC) and 4 non-small cell lung cancer (NSCLC) cells, all of which are APC wild-type (FIG. 9B).

[5] = system: KRAS-independent colon cancer cells; assay: Apoptosis by PARP and caspase-3 cleavage; format: cell-based, human; conditions: except at very high doses
Description: (B) Effects of TAK1 inhibition on apoptosis and signaling in a representative panel of KRAS-independent and KRAS-dependent cell lines, 24 h after treatment. PARP and caspase-3 cleavage are shown as indicators of apoptosis, and AMPK threonine 172 (T172) phosphorylation is shown as a downstream indicator of TAK1 signaling activity. GAPDH serves as a gel loading control.
Pharmacologic TAK1 inhibition triggered apoptosis in KRAS-dependent colon cancer cells, as measured by PARP and caspase-3 cleavage (FIG. 3B). […] Thus, low concentrations of 5Z-7-oxozeaenol, in the range of 0.625 to 1.25 μM, promote apoptosis selectively in KRAS-dependent colon cancer cells.

SMILES: COc1cc(O)c2c(c1)/C=C/C[C@H](O)[C@H](O)C(=O)/C=C\C[C@H](C)OC2=O [5Z-7-oxozeaenol]
- effect on BIO-mediated TOP-FLASH induction [1]: abrogates the BIO-mediated TOP-FLASH induction
- change in sensitivity to 5Z-7-oxozeaenol [2]: slightly increased resistance
- IC50 [3]: 1100 nM
- sensitivity to 5Z-7-oxozeaenol [4]: largely refractory
- caspase-3 or PARP cleavage [5]: little or no
